This note sets out measurements from ChEMBL document CHEMBL3507680, “University of Dundee, Gates Library screen for HepG2 cell viability”.

The data set is described as follows: Human HepG2 cell viability assay in 384 well format. In kind it is toxicity, cell-based. Particulars: HepG2 cells, read-out: Inhibition. Also on record: dose 125 nL, time 70.5 hour; cytotoxicity at 70.5 h: concentration not given beside the values.

With `CC(NC1CCCC1)c1ccccc1-n1cccn1` (centres undefined), the cytotoxicity at 70.5 h was -6.22%. As for `N#CC1(C(=O)N2C[C@H](Nc3ncccn3)[C@@H](C3CC3)C2)CCOCC1`, the figure is -15.6%.

In the case of `CSc1ccc(CNC(=O)C2CC(=O)N(C(C)(C)C)C2)cc1` (centres undefined), the cytotoxicity at 70.5 h is -3.39%. Take `O=C(c1cn(CC(=O)N2CCc3[nH]cnc3C2)c2ccccc12)C1CC1`: the cytotoxicity at 70.5 h is -5.73%.

In the case of `O=C(C1CCC1)N1CCc2[nH]cnc2C12CCN(C1CCOCC1)CC2`, the cytotoxicity at 70.5 h was -0.358%.

On to `O=C(Cc1cc2c(cc1Cl)OCCO2)N1CC[C@H](CO)[C@H](O)C1`, for which the cytotoxicity at 70.5 h was -5.99%.

Take `CC(C)[C@H]1CN(Cc2ccccn2)C[C@@H]1NC(=O)CCS(C)(=O)=O`: the cytotoxicity at 70.5 h was -4.06%. As for `Cc1csc(CN2CCC(C(=O)O)(n3ccc(-c4ccco4)n3)CC2)n1`, the cytotoxicity at 70.5 h is -7.21%. For the molecule `Cc1cccc(-n2ncc3c2CCCC3NCc2cnn(C)c2C)c1C` (centres undefined), the cytotoxicity at 70.5 h is 3.5%. On to `Cn1c(=O)oc2ccc(NC(=O)N3CCOCC3)cc21`, for which the cytotoxicity at 70.5 h came to 31.6%. For `COc1cccc(-c2c[nH]c(C)n2)c1F`, the cytotoxicity at 70.5 h was -11.2%. As for `O=C(CCn1ccc(=O)[nH]c1=O)N1CCC(OCc2cccnc2)CC1`, the figure is 27.2%; as for `CN1CCCN(C(=O)c2cc(CN(C)CCc3ccccc3)on2)CC1`, -10.4%; as for `CN(C)c1ncnc2c1CCN(S(=O)(=O)c1cccc(Cl)c1Cl)C2`, -4.66%. As to `O=C1CCC2(CCN(Cc3cscn3)CC2)CN1CCCO`, the cytotoxicity at 70.5 h is -8.82%. On to `Cc1cnc(C)c(N2CCC(c3nnc(CN(C)C)n3C3CC3)CC2)n1`, for which the cytotoxicity at 70.5 h worked out at 11.2%. `CCN(Cc1nccn1C)C(=O)c1ccc(NCCc2c[nH]cn2)nc1`: the cytotoxicity at 70.5 h was 4.71%. With `CCN(C)Cc1n[nH]c(=O)n1-c1cc(F)ccc1C`, the cytotoxicity at 70.5 h was -5.83%. For the molecule `O=C(Cn1nc2ccccc2n1)N1CCCC(O)(CN2CCCC2)C1` (centres undefined), the cytotoxicity at 70.5 h stood at 13.9%.

Regarding `CCOc1ccc(C(=O)CCC(=O)NCCc2nncn2CC)cc1C`, the cytotoxicity at 70.5 h stood at 22.5%. Under `COCCOC(=O)N1CCn2nc(CN(C)Cc3nccs3)cc2C1` stands 13.8%; under `Cc1cccc(C2CCCN(C(=O)CN3CCC(C(N)=O)CC3)C2)c1` (centres undefined), -4.32%; under `COCCCN(C)C(=O)Cn1cccc(OC)c1=O`, -10.6%. Regarding `CC1(C)CN(CC(=O)NCc2ccccc2F)C[C@]1(C)O`, the cytotoxicity at 70.5 h was -9.16%. Consider `O=C(c1ccco1)N1CCc2c(nc(-c3ccncc3)[nH]c2=O)C1`, for which the cytotoxicity at 70.5 h worked out at 13%.

As to `CN(C)CCC1CN(C(=O)c2cccc3c2OCC3)CCO1` (centres undefined), the cytotoxicity at 70.5 h amounted to 30%. Under `CC(C)[C@]1(O)CN(C(=O)COCC(N)=O)C[C@H]1C` stands 23.2%. As to `O=c1c2cccc(F)c2ncn1CCN1CCNCC1`, the cytotoxicity at 70.5 h was -2.04%. Under `Cc1c(Cl)c(C(=O)N2CC(c3cccnc3)C2)nn1C` stands -1.27%; under `O=C(c1cncc(N2CCC3(CCCNC3)C2)n1)N1CCCC1` (centres undefined), -5.37%.

Regarding `OCC1(CCOc2ccccc2)CCCN(c2ccc(Cl)cn2)C1` (centres undefined), the cytotoxicity at 70.5 h was -2.17%. `CN(C)c1nc2n(c(=O)n1)CCN2C(=O)Nc1ccccc1`: the cytotoxicity at 70.5 h was -5.25%.

Turning to `O=C(Nc1ccccc1C(=O)NCCCN1CCOCC1)c1ccco1`, the cytotoxicity at 70.5 h was -6.18%. Under `CN(C(=O)c1ccc2c(c1)nc(N1CC[C@H](O)C1)n2C)C1CCSCC1` stands 24.9%; under `COc1ccc(Cl)cc1S(=O)(=O)N(C)CC(N)=O`, -5%; under `O=C(COc1cccnc1)N1CCOC(C(F)(F)F)C1` (centres undefined), -0.535%. Consider `CC(=O)N1CCOC(CNC(=O)c2cccc(CCC(C)(C)O)c2)C1` (centres undefined), for which the cytotoxicity at 70.5 h came out at 8.87%. Turning to `COCc1ncc(CN2CC[C@@H](NC(=O)c3cccnc3)[C@H](O)C2)cn1`, the cytotoxicity at 70.5 h is 20.2%.

Take `CC(C)(C)NC(=O)c1ccccc1NC(=O)c1ccncc1`: the cytotoxicity at 70.5 h is -5.9%. For the molecule `CCN(CC)CCn1ccnc1-c1[nH]cnc1C`, the cytotoxicity at 70.5 h amounted to 3.84%. For `COc1cccc(-c2noc3c2CN(c2nc(C)ncc2C)CC3)c1`, the cytotoxicity at 70.5 h is -9.61%. With `N[C@H]1CN(Cc2cnc(N3CCCC3)nc2)C[C@@H]1C1CC1`, the cytotoxicity at 70.5 h was -5.36%. Turning to `COC(=O)c1ccc(OC)c(CN2CCN(CC(C)C)C(=O)C2C)c1` (centres undefined), the cytotoxicity at 70.5 h amounted to 26.8%. As for `CCCc1cc(CNC2CCN(c3nc4ccccc4s3)CC2)on1`, the figure is -6.6%; as for `O=c1c2ccccc2ncn1Cc1cc(C2CC2)[nH]n1`, 13.8%; as for `CN(C)C(=O)C1CCCN1C(=O)c1ccc(Cn2ccnc2)o1` (centres undefined), 10.3%.

For `CCn1c(CC2CCNCC2)nn(Cc2ccc(C(=O)NC)o2)c1=O`, the cytotoxicity at 70.5 h was -11.7%.

`CC1CN(S(=O)(=O)c2ccc(C(=O)NCC(F)F)cc2)CCCO1` (centres undefined): the cytotoxicity at 70.5 h was -0.0719%.

As for `Cn1ncc(C2CC(=O)NCc3nc4sccn4c32)c1C1CC1` (centres undefined), the cytotoxicity at 70.5 h is -12.3%. As for `CCc1c(C)nc(C)nc1N1C[C@@H](CN(C)C)[C@@H](CO)C1`, the figure is -1.15%. As for `CCCNS(=O)(=O)Cc1ccc(Br)cc1`, the figure is -7.66%; as for `Cc1ccc2cc(CN(C)Cc3ccccn3)c(=O)[nH]c2c1`, 12.4%; as for `CCc1ccccc1-c1cc(OC)nc(N)n1`, -8.45%.

As for `CC(C)CC(O)C1CCN(C(=O)c2ccc(C(F)(F)F)nc2O)CC1` (centres undefined), the cytotoxicity at 70.5 h is -5.89%. Under `CCN(C)C(=O)c1cccc(S(=O)(=O)NCCc2nc(C)cc(=O)[nH]2)c1` stands -22.4%; under `CC(C)[C@H]1CN(CCCO)C[C@@H]1NC(=O)CCC(F)(F)F`, -7.33%; under `CC(Cn1ccnc1)NC1CCN(Cc2cccc(O)c2)CC1` (centres undefined), -4.85%. Under `CCN(CC)C(CNCc1ccc(O)cc1)c1ccco1` (centres undefined) stands 27%. `CCC(C(=O)N(C)CCC1=CCN(C)CC1)c1ccccc1` (centres undefined): the cytotoxicity at 70.5 h turned out to be 57.9%. Under `CC(=O)N1CCN(Cc2ccc(C(F)(F)F)c(F)c2)CC(O)C1` (centres undefined) stands 0.294%; under `CNC(=O)[C@@H]1C[C@@H](N)CN1C(=O)CCSCc1ccccc1`, -4.11%; under `CCN1CC2(CCN(CC3COCCO3)CC2)OC1=O` (centres undefined), 44.4%. Under `CCc1ccc(OCC(=O)N2CCN(CC)CC2)cc1` stands -6.61%; under `CN(Cc1cccnc1)CC1CCOc2ccccc2C1` (centres undefined), -5.68%. Under `COCCn1ccnc1C1CCCN(C(=O)c2cccnc2SC)C1` (centres undefined) stands 13%; under `Cc1ccc2nc(C3CCCN3C(=O)c3cc(=O)[nH]c(=O)[nH]3)[nH]c2c1` (centres undefined), 30.8%. As to `O=C1[C@@H]2CN(c3ncc(Cl)cc3F)C[C@]2(C(=O)O)CN1CC1CC1`, the cytotoxicity at 70.5 h was -5.98%. Under `CC(C)(O)CCc1cccc(C(=O)N[C@@H](CO)C(N)=O)c1` stands 3.89%; under `Cc1cc(-c2n[nH]c3c2CN(S(=O)(=O)c2ccsc2)CC3)c(C)o1`, -9.27%; under `COc1ccc(OCc2cc(C(=O)N3CC=CC3)n[nH]2)c(Cl)c1`, -3%. As for `O=C(CN1CCOc2ccccc2C1)NCc1cc2n(n1)CCCNC2`, the figure is -2.45%.

For the molecule `COc1ccccc1OCc1cc(C(=O)N2CCC(C(C)O)CC2)n[nH]1` (centres undefined), the cytotoxicity at 70.5 h was -5.66%. As for `COc1cccc2c1OCC(CNC(=O)COCC(F)(F)C(F)F)C2` (centres undefined), the figure is 8.83%; as for `COCCc1noc(Cn2ccc3ccccc3c2=O)n1`, -0.672%. `CCOC(=O)N1CCN(CC(=O)Nc2nnc(CC)s2)CC1`: the cytotoxicity at 70.5 h was -4.24%. As for `O=C(O)C(c1ccc2c(c1)OCCO2)N1CCC(N2CCOCC2)CC1` (centres undefined), the figure is 0.0244%; as for `CCc1nnc(CNC(=O)CCC2CCCCN2C)s1` (centres undefined), 6.71%.

With `Cc1nsc(NC(=O)N2CCCCC2CCCO)n1` (centres undefined), the cytotoxicity at 70.5 h is -1.47%. For `Cc1cc(C2CCC2)nc(N2CCC3(CCCNC3=O)C2)n1` (centres undefined), the cytotoxicity at 70.5 h was -18.8%.

Consider `Cc1oc(C(C)C)cc1C(=O)N1CCN(c2cnn(C)c(=O)c2)CC1`, for which the cytotoxicity at 70.5 h is -3.48%. Under `c1ccc2c(c1)CC(n1ccnc1-c1cc3n(n1)CCNC3)CO2` (centres undefined) stands 1.41%; under `COc1ccccc1N1CCN(C(=O)CCn2ccnc2C)CC1(C)C`, 21.5%; under `Cc1cc(CN2CCC(c3nccn3C(C)C)CC2)ccc1F`, 15.8%. For the molecule `c1ccc(CCCN2CCCC(Nc3cnc4ccccc4n3)C2)cc1` (centres undefined), the cytotoxicity at 70.5 h is -2.78%.

For `Cc1cc(=O)n(CC(=O)NC2CCCCC2)c2ccccc12`, the cytotoxicity at 70.5 h is -8.81%. On to `Cc1nc(CN2CCCN(CCOc3ccc(C#N)cc3)CC2)no1`, for which the cytotoxicity at 70.5 h was -0.262%.

With `CC(C)c1nccn1C1CCCN(C(=O)CN(C)C2CC2)C1` (centres undefined), the cytotoxicity at 70.5 h is -2.03%. As for `O=C(NCCn1ccnc1)c1ccn(-c2ccc(F)cc2)n1`, the figure is -2.38%; as for `O=C(NCCn1ccnc1)c1ccn(-c2ccccc2F)n1`, 13.4%. As for `CC(C)c1nccn1C1CCCN(C(=O)CCc2cscn2)C1` (centres undefined), the figure is -6.33%; as for `CC(C)c1nccn1C1CCCN(C(=O)CCCc2ccccn2)C1` (centres undefined), -10.5%. With `Cc1nc(CN2CCCC2c2c(C)nn(C)c2Cl)oc1C` (centres undefined), the cytotoxicity at 70.5 h is 19.6%. Under `Cc1noc(C)c1CN1CCCC1c1c(C)nn(C)c1Cl` (centres undefined) stands -2.34%; under `O=C(NCC1CCOC1)N1CCN(Cc2ccc3c(c2)OCO3)CC1` (centres undefined), 3.28%; under `O=C(NCC1CCCO1)N1CCN(Cc2ccc3c(c2)CCO3)CC1` (centres undefined), -9.76%. Under `Cc1nc(C(C)(C)C)sc1C(=O)NCCNc1ncccn1` stands -8.27%. For `Cc1cc(C)c(CNC(=O)N(C)Cc2ccoc2)c(=O)[nH]1`, the cytotoxicity at 70.5 h is -2.92%. Turning to `Cc1cc(C)c(CNC(=O)N(C)Cc2ccc(F)cc2)c(=O)[nH]1`, the cytotoxicity at 70.5 h was 18.3%. Turning to `COc1cc(CNCC(C)O)cc(Cl)c1OCc1ccc(C)cc1` (centres undefined), the cytotoxicity at 70.5 h stood at 39%.
